In series [1] the test system is human secondary intention wound. In words: Vacuum-assisted wound treatment combined with intermittent instillation of aganocide (HOCl) on a human wound. In kind it is in vivo. To be noted: 0.45% NaCl, pH about 4. The procedure:
A human secondary intention wound approximately 3-4 cm in diameter is fitted with a polyurethane sponge, pore size 400-600 microns cut to the size of the wound and twice the thickness of the wound and covered with an adhesive film, per instructions on the vacuum system. The outlet is connected to an IV bag (500 ml) with 0.01% HOCl, 0.45% NaCl, and pH of about 4 and is elevated to between 0.1 and 1 meter above the wound. A 1-cm hole is punctured in the adhesive film, and a second adhesive film is used to cover the hole, with the second outlet connected to the vacuum pump.
Each cycle consists of three phases: a 2-hour pumping phase when the vacuum (125 mm Hg negative pressure) is connected and the IV bag is disconnected; […] and the IV bag is connected and the aganocide is applied to the wound; […] IV bag are disconnected.
Each treatment has about 24 cycles and starts with a pumping phase and proceeds for 48 hours. When the treatment is completed, the dressings are changed and the treatment is repeated until full granulation has been promoted and the granulation tissue is within the level of the skin, approximately 30 to 100 days, depending on the depth of the original wound. […]

A further series concerns test bacteria. In words: Comparison of hypochlorous acid with Dakin's solution (antimicrobial activity, therapeutic index, time kill). To be noted: in the regimen described. The source says: “Time kill” refers to an in vitro measure of how fast a given antimicrobial can kill test bacteria.
This means that the time to wound closure may be reduced using hypochlorous acid.

Each structure is given as a SMILES string.

As to `OCl` [hypochlorous acid], the “wound healing results of combination regimen compared with vacuum alone or aganocide alone” value in series [1] (Example 1: 0.01% HOCl, 1 second instilling, 15 second holding) is reported as “superior”. The “wound healing results of combination regimen compared with vacuum alone or aganocide alone” value in series [1] (Example 2: 0.01% HOCl, 5 second instilling, 5 minute holding) is recorded as “superior”. In addition, in the series with test bacteria, the “antimicrobial activity in comparison with Dakin's solution” value was “improved”, the “therapeutic index in comparison with Dakin's solution” value was “improved” and the “time kill in comparison with Dakin's solution” value is “improved”.

The values are drawn from US20070292488A1, “METHOD FOR TREATMENT OF WOUND TREATMENT USING AGANOCIDES” (priority 2006, published 2007).
